Values joined by “and” are separate entries in the source; they are usually repeats but may differ in a detail not shown here. Equal values may be shown once.
Legend:
[1] = tested on: human skin fibroblasts in primary culture; experiment: Cell proliferation by neutral red staining (cell viability); format: cell-based; settings: TGF positive control, 96 hours of incubation, control = 100
Protocol: (§1) Assays were carried out to assess the potential of the polysaccharides obtained in accordance with the present invention in promoting cell proliferation (the increase in the number of cells in relation to a control group not treated with the active ingredient) by analyzing cell viability through neutral red staining. Another object of the assays was to assess the procollagen potential of active ingredients (collagen in excess produced by the cells treated with the active ingredient in relation to the untreated control cells), by detecting the collagen in the culture supernatant through the sirius red stain.
a) Whether or not the presence of a specific active ingredient in the cell culture, for one or more periods, results in an increase in the number of cells in relation to the control group (cells not treated with the same active ingredient). The number of cells is estimated as a function of the cell viability rate, which is monitored by the incubation of fibroblasts with the vital stain neutral red at the end of the assay period (96 h). This stain is incorporated into living cells so that the cell viability rate is given by the intensity of the stain absorbed by the cells in a directly proportional ratio. The colorimetric reading is carried out in a spectrophotometer, at the wavelength of 540 nm.

[2] = tested on: human skin fibroblasts in primary culture; experiment: Procollagen potential / collagen synthesis by sirius red stain in culture supernatant; format: cell-based; settings: TGF positive control, 96 hours; for Normalized Collagen (%) (increase in collagen synthesis): control = 0.00
Protocol: as §1
b) Whether or not the presence of the active ingredient induces the cells to produce more collagen per se. To this end, dermis-derived human fibroblasts are incubated with the […](TGF-β), known to induce collagen synthesis and secretion (positive control). Simultaneously, other fibroblasts under the same condition are incubated with the active ingredient being tested. The collagen is identified by the sirius red stain (picrosirius solution), which has affinity for procollagen and collagen molecules. The procollagen potential of each active ingredient is identified by the increase in optical density (absorbance 540 nm filter) measured after the dissolution of the pigments previously absorbed by the collagen present in the culture supernatants.

tumor growth factor-β [TGF]
Cell Proliferation [1]: 136.00% and 148.1%
Total Collagen ± standard deviation (optical density) ([2]; control 0.152): 0.224 ± 0.009 Abs
Normalized Collagen (%) (increase in collagen synthesis) [2]: 98.10%
Normalized Collagen (%) (increase in collagen synthesis) ([2]; listed as TGF-b): 98.1%
Collagen (%) after normalization by the viability index ([2]; control = 100.00 (Table 2)): 109.4%
Normalized Collagen ([2]; normalized by viability index, control = 100.00): 198.10%

Reference: patent US10844141B2, “Process for obtaining polysaccharides from jatoba (Hymenea courbaril l ) seeds, cosmetic composition comprising said polysaccharides and uses thereof” (NATURA COSMÉTICOS S.A., priority 2008, dated 2020)
